Results published in patent US20110021543A1, “HETEROCYCLIC COMPOUNDS AND THEIR USE AS PESTICIDES” (priority 2007, published 2011).

How the values were obtained:
[1] = system: Rhipicephalus sanguineus (dog tick); assay: Activity in vitro against Rhipicephalus sanguineus (dog tick), adult tick contact test in 96-well plate; conditions: at 640 ppm, 10 minutes contact, incubated 7 days at 28° C. and 80% relative humidity
Experimental: 1. Activity In Vitro Against Rhipicephalus sanguineus (Dog Tick).
A clean adult tick population is used to seed a suitably formatted 96-well plate containing the test substances to be evaluated for antiparasitic activity. Each compound is tested by serial dilution in order to determine its minimal effective dose (MED). Ticks are left in contact with the test compound for 10 minutes and are then incubated at 28° C. and 80% relative humidity for 7 days, during which the test compound's effect is monitored. Acaricidal activity is confirmed if adult ticks are dead.

[2] = system: Ctenocephalides felis (cat flea); assay: Activity in vitro against Ctenocephalides felis (cat flea), artificial blood feeding system; conditions: at 100 ppm; adult fleas fed on treated blood for 24 hours
Experimental: 2. Activity In Vitro Against Ctenocephalides felis (Cat Flea). A mixed adult population of fleas is placed in a suitably formatted 96-well plate allowing fleas to access and feed on treated blood via an artificial feeding system. Each compound is tested by serial dilution in order to determine its MED. Fleas are fed on treated blood for 24 hours, after which the compound's effect is recorded. Insecticidal activity is determined on the basis of the number of dead fleas recovered from the feeding system.

In the case of `CC(O)(c1cn(-c2c(Cl)cc(C(F)(F)F)cc2Cl)c2cccnc12)C(F)(F)F` (centres unmarked) [Compound 1.43, 2-[1-(2,6-Dichloro-4-trifluoromethyl-phenyl)-1H-pyrrolo[3,2-b]pyridin-3-yl]-1,1,1-trifluoro-propan-2-ol], the “efficacy (acaricidal activity, dead adult ticks)” value [1] is reported as “more than 80%” and the “efficacy (insecticidal activity, dead fleas)” value [2] is reported as “more than 80%”.
